Measurements from patent publication US12691101B2, “Compound and method for preventing or treating of respiratory diseases comprising the same as an active ingredient” (YONSEI UNIVERSITY, UNIVERSITY - INDUSTRY FOUNDATION (UIF), priority 2019, dated 2026).
“Also recorded” adds a separate entry of the source. Read-outs that look alike come from different tables or passages of the source.

Columns and labels:
[1] = molecular target: T1, human wild-type (WT)-pendrin (Homo sapiens, UniProt O43511); test: Pendrin-mediated Cl^−/I^− exchange activity, YFP fluorescence in CHO-K1 cells; type: cell-based; settings: for inhibition at 30 µM: CHO-K1, 30 μM, read-out: Pendrin inhibitory activity at 30 μM (%); for inhibition of pendrin Cl^−/I^− exchange activity: CHO-K1 cells, pretreated 10 minutes
T1 construct: expressed in transfected cells
T1 sequence (O43511 1-780): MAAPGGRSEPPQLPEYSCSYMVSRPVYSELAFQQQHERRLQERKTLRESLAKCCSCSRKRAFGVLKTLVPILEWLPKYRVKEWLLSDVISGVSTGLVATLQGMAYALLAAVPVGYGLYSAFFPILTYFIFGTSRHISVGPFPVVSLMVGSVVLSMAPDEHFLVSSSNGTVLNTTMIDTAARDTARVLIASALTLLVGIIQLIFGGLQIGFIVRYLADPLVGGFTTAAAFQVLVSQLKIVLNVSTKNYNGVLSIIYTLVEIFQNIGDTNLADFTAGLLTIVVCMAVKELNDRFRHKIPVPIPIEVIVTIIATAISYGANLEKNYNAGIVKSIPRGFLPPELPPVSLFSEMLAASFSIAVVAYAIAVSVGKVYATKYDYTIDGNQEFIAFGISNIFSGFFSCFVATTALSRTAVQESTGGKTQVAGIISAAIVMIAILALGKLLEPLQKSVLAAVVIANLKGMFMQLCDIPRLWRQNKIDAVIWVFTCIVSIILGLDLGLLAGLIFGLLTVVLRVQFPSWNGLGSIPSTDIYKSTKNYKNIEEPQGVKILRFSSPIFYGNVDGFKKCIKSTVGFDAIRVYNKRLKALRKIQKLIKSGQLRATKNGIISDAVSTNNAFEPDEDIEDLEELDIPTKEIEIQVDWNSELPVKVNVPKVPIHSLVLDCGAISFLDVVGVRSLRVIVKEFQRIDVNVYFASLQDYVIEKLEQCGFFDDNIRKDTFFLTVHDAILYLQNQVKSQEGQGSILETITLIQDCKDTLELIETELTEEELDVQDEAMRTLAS

[2] = molecular target: T1, human wild-type (WT)-pendrin; test: Pendrin-mediated Cl^−/SCN^− exchange activity in CHO-K1 cells; type: cell-based
Procedure: For measurement of Cl^−/SCN^− exchange activity, YFP fluorescence was measured in pendrin and halide sensor YFP expressing CHO-K1 cells. To measure the Cl^−/SCN^− exchange activity, HEPES buffer solution was changed to NaSCN-substituted HEPES buffer solution (140 mM NaSCN, 5 mM KCl, 1 mM MgCl2, 1 mM CaCl2, 10 mM glucose and 10 mM HEPES (pH 7.4)) for generation of an SCN^− gradient driving SCN^− inflow by pendrin. The YFP fluorescence change by SCN^− inflow was monitored using FLUOstar Omega microplate reader (BMG Labtech) and MARS data analysis software (BMG Labtech).

[3] = compounds showing pendrin inhibitory activity of 50% or more at 30 μM, read-out: IC50

IC50 ([1]; FIG. 4(a), read-out: 50% inhibition of Cl^−/I^− exchange activity) | SMILES | inhibition at 30 µM [1] | inhibition of pendrin Cl^−/I^− exchange activity [1] | IC50 ([1]; FIG. 4(b), read-out: inhibitory effect on the Cl—/I— exchange activity: IC50) | IC50 [1, 3] | inhibition of pendrin Cl^−/SCN^− exchange activity [2]
– | CC(C)(C)c1ccc(C2=NC(=Cc3ccc[nH]3)C(=O)O2)cc1 [F10, 4-((1H-pyrrol-2-yl)methylene)-2-(4-(tert-butyl)phenyl)oxazol-5 (4H)-one] | 100% | strongly inhibit | ~80 nM | 80 ± 20 nM | strongly inhibit
~3000 nM | CC(C)(C)c1ccc(C2=NC(=Cc3cccs3)C(=O)O2)cc1 [F56, 2-(4-(tert-butyl)phenyl)-4-(thiophen-2-ylmethylene)oxazol-5(4H)-one] | 84.7% | significantly inhibited; also recorded: strongly inhibited | – | 3300 ± 640 nM | strongly inhibited
